According to the NIST ThermoML archive (doi:10.1007/s10765-011-1087-7):

Key:
[1] = refractive index (Na D-line) (dimensionless); xn = mol fraction of the nth substance listed; details: 101 kPa, Liquid
[2] = xn = mol fraction of the nth substance listed; details: 298.15 K, 101 kPa, Liquid; for speed of sound: Pulse-echo method

CCCCCCC(C)O (centres undefined) [2-octanol] + Clc1ccccc1Cl
refractive index, [1]
Details	298.15 K	303.15 K	308.15 K
x2 = 0.0721	1.4308	1.4293	1.4274
x2 = 0.1124	1.4352	1.4336	1.4319
x2 = 0.1868	1.443	1.4416	1.4399
x2 = 0.2615	1.4507	1.4492	1.4476
x2 = 0.3223	1.4569	1.4552	1.4534
x2 = 0.3758	1.4624	1.4604	1.4587
x2 = 0.4495	1.4698	1.4678	1.4658
x2 = 0.512	1.4763	1.4741	1.4718
x2 = 0.5923	1.4848	1.4828	1.48
x2 = 0.6557	1.492	1.4902	1.4873
x2 = 0.7312	1.5014	1.4997	1.4967
x2 = 0.797	1.5103	1.509	1.5059
x2 = 0.8672	1.521	1.52	1.5168
x2 = 0.9481	1.5353	1.5342	1.531

[2]
Details	mass density [kg/m3]	speed of sound [m/s]	viscosity [mPa·s]
x2 = 0.0721	841.72	1302	5.353
x2 = 0.1124	856.33	1299.7	4.742
x2 = 0.1868	884.26	1295.1	3.839
x2 = 0.2615	913.56	1291	3.163
x2 = 0.3223	938.42	1287.8	2.721
x2 = 0.3758	961.09	1285.1	2.414
x2 = 0.4495	993.6	1281.8	2.086
x2 = 0.512	1022.45	1279.1	1.873
x2 = 0.5923	1061.35	1276.1	1.668
x2 = 0.6557	1093.66	1274.5	1.551
x2 = 0.7312	1134.18	1273.2	1.406
x2 = 0.797	1171.44	1273	1.293
x2 = 0.8672	1213.47	1274.4	1.283
x2 = 0.9481	1265.11	1277.6	1.308
